Experimental data from patent US20170334899A1, “AMINO-SUBSTITUTED ISOTHIAZOLES” (Bayer Pharma Aktiengesellschaft, priority 2014, published 2017).

Target: T1, human kinase Mps-1 (Homo sapiens, UniProt P33981)
T1 construct: N-terminally GST-tagged human full length recombinant Mps-1 kinase; GST (N); purchased Invitrogen, Karslruhe, Germany PV4071
T1 sequence (P33981 1-857): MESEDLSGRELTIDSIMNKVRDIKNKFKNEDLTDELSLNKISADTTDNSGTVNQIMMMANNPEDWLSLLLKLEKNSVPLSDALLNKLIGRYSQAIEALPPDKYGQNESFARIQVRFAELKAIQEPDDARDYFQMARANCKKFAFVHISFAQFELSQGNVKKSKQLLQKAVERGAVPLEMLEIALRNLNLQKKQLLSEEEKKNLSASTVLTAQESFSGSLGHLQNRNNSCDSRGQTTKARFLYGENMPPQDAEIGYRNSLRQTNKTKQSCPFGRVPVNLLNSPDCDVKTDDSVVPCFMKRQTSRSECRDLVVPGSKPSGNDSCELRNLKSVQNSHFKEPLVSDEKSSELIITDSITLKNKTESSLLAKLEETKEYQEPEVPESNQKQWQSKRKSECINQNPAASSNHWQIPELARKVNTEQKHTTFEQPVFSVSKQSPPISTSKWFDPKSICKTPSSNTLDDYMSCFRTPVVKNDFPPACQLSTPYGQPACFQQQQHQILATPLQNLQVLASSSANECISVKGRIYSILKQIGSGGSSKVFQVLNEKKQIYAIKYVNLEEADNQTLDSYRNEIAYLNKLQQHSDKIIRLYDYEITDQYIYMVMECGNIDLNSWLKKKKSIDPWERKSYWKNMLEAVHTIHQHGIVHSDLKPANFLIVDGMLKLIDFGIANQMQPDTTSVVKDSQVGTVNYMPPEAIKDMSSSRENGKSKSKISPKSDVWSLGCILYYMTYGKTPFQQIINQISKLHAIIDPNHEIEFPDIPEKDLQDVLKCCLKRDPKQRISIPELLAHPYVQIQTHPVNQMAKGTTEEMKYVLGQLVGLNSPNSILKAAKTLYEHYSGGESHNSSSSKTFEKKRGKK
Assay: Mps-1 kinase assay (TR-FRET)
Assay type: biochemical
Details: Mps-1 TR-FRET kinase assay; avg; read-out: Mps1 avg (IC50 [mol/l])
Procedure: The human kinase Mps-1 phosphorylates a biotinylated substrate peptide. Detection of the phosphorylated product is achieved by time-resolved fluorescence resonance energy transfer (TR-FRET) from Europium-labelled anti-phospho-Serine/Threonine antibody as donor to streptavidin labelled with cross-linked allophycocyanin (SA-XLent) as acceptor. Compounds are tested for their inhibition of the kinase activity.
N-terminally GST-tagged human full length recombinant Mps-1 kinase (purchased from Invitrogen, Karslruhe, Germany, cat. no PV4071) was used. As substrate for the kinase reaction a biotinylated peptide of the amino-acid sequence biotin-Ahx-PWDPDDADITEILG (C-terminus in amide form, purchased from Biosyntan GmbH, Berlin) was used.
For the assay 50 nl of a 100-fold concentrated solution of the test compound in DMSO was pipetted into a black low volume 384we11 microtiter plate (Greiner Bio-One, Frickenhausen, Germany), 2 μl of a solution of Mps-1 in assay buffer [0.1 mM sodium-ortho-vanadate, 10 mM MgCl2,2 mM DTT, 25 mM Hepes pH 7.7, 0.05% BSA (w/v), 0.001% Pluronic F-127] were added and the mixture was incubated for 15 min at 22° C. to allow pre-binding of the test compounds to Mps-1 before the start of the kinase reaction. Then the kinase reaction was started by the addition of 3 μl of a solution of 16.7 μM adenosine-tri-phosphate (ATP, 16.7 μM=>final conc. in the 5 μl assay volume is 10 μM) and peptide substrate (1.67 μM=>final conc. in the 5 μl assay volume is 1 μM) in assay buffer and the resulting mixture was incubated for a reaction time of 60 min at 22° C. The concentration of Mps-1 in the assay was adjusted to the activity of the enzyme lot and was chosen appropriate to have the assay in the linear range, typical enzyme concentrations were in the range of about 0.5 nM (final conc. in the 5 μl assay volume). The reaction was stopped by the addition of 5 μl of a solution of TR-FRET detection reagents (100 mM Hepes pH 7.4, 0.1% BSA, 40 mM EDTA, 140 nM Streptavidin-XLent [#61GSTXLB, Fa. Cis Biointernational, Marcoule, France], 1.5 nM anti-phospho(Ser/Thr)-Europium-antibody [#AD0180, PerkinElmer LAS, Rodgau-Jugesheinn, Germany]. Instead of the 1.5 nM anti-phospho(Ser/Thr)-Europium-antibody a mixture of 2 nM unlabeled anti-phospho ser/thr-pro antibody MPM-2 [Millipore cat. #05-368] and 1 nM LANCE EU-W1024 labeled anti-mouse IgG antibody [Perkin-Elmer, product no. AD0077] can be used).
The resulting mixture was incubated 1 h at 22° C. to allow the binding of the phosphorylated peptide to the anti-phospho(Ser/Thr)-Europium-antibody. Subsequently the amount of phosphorylated substrate was evaluated by measurement of the resonance energy transfer from the Europium-labelled anti-phospho(Ser/Thr) antibody to the Streptavidin-XLent. Therefore, the fluorescence emissions at 620 nm and 665 nm after excitation at 350 nm was measured in a Viewlux TR-FRET reader (PerkinElmer LAS, Rodgau-Jugesheinn, Germany). The “blank-corrected normalized ratio” (a Viewlux specific readout, similar to the traditional ratio of the emissions at 665 nm and at 622 nm, in which blank and Eu-donor crosstalk are subtracted from the 665 nm signal before the ratio is calculated) was taken as the measure for the amount of phosphorylated substrate. The data were normalised (enzyme reaction without inhibitor=0% inhibition, all other assay components but no enzyme=100% inhibition).

IC50	SMILES
≥ 20 µM	Cc1nsc(Nc2cnc(C(F)(F)F)cn2)c1C(=O)Nc1ccc(OCC2CCN(CC(F)(F)F)C2)nc1 (stereo not shown) [Example 123, 3-Methyl-N-(6-{[1-(2,2,2-trifluoroethyl)pyrrolidin-3-yl]methoxy}pyridin-3-yl)-5-{[5-(trifluoromethyl)pyrazin-2-yl]amino}-1,2-thiazole-4-carboxamide]
> 20 µM	Cc1nsc(Nc2cnc(C(F)(F)F)cn2)c1C(=O)Nc1ccc(C(=O)N2CCN(CC(F)F)CC2)cc1 [Example 154, N-(4-{[4-(2,2-difluoroethyl)piperazin-1-yl]carbonyl}phenyl)-3-methyl-5-{[5-(trifluoromethyl)pyrazin-2-yl]amino}-1,2-thiazole-4-carboxamide]
13 µM	Cc1nsc(Nc2cnc3ccccc3n2)c1C(=O)Nc1cccc(C(=O)N[C@@H](CCC(N)=O)C(=O)O)c1 [Example 103, N^2-[3-({[3-Methyl-5-(quinoxalin-2-ylamino)-1,2-thiazol-4-yl]carbonyl}amino)-benzoyl]glutamine]
> 20 µM	Cc1nsc(Nc2cnc3ccccc3n2)c1C(=O)Nc1ccc(N2CCOCC2)nc1 [Example 169, 3-methyl-N-[6-(morpholin-4-yl)pyridin-3-yl]-5-(quinoxalin-2-ylamino)-1,2-thiazole-4-carboxamide]
≥ 20 µM	Cc1noc(-c2cccc(NC(=O)c3c(C)nsc3Nc3cnc4ccccc4n3)c2)n1 [Example 106, 3-Methyl-N-[3-(3-methyl-1,2,4-oxadiazol-5-yl)phenyl]-5-(quinoxalin-2-ylamino)-1,2-thiazole-4-carboxamide]
≥ 20 µM	Cc1nsc(Nc2cnc3ccccc3n2)c1C(=O)Nc1cccc(-c2nc(C(C)(C)C)no2)c1 [Example 108, N-[3-(3-tert-Butyl-1,2,4-oxadiazol-5-yl)phenyl]-3-methyl-5-(quinoxalin-2-ylamino)-1,2-thiazole-4-carboxamide]
≥ 20 µM	CC(=O)N(C)CCOc1ccc(NC(=O)c2c(C)nsc2Nc2nc3c(C(F)(F)F)cccc3s2)cn1 [Example 112, N-(6-{2-[Acetyl(methyl)amino]-ethoxy}pyridin-3-yl)-3-methyl-5-{[4-(trifluoromethyl)-1,3-benzothiazol-2-yl]amino}-1,2-thiazole-4-carboxamide]
≥ 20 µM	Cc1nsc(Nc2cnc(C(F)(F)F)cn2)c1C(=O)Nc1ccc(OC2CCN(CC(F)(F)F)CC2)nc1 [Example 9, -Methyl-N-(6-{[1-(2,2,2-trifluoroethyl)piperidin-4-yl]oxy}pyridin-3-yl)-5-{[5-(trifluoromethyl)pyrazin-2-yl]amino}-1,2-thiazole-4-carboxamide]
≥ 20 µM	Cc1nsc(Nc2cnc(C(F)(F)F)cn2)c1C(=O)Nc1ccc(OC2CCNCC2)nc1 [Example 6, 3-Methyl-N-[6-(piperidin-4-yloxy)pyridin-3-yl]-5-{[5-(trifluoromethyl)pyrazin-2-yl]amino}-1,2-thiazole-4-carboxamide]
> 20 µM	Cc1nsc(Nc2cnc(C(F)(F)F)cn2)c1C(=O)Nc1ccc(O[C@H]2CCN(CCC(F)(F)F)C[C@H]2F)nc1 [Example 146, N-(6-{[(3R,4S)-3-fluoro-1-(3,3,3-trifluoropropyl)piperidin-4-yl]oxy}pyridin-3-yl)-3-methyl-5-{[5-(trifluoromethyl)pyrazin-2-yl]amino}-1,2-thiazole-4-carboxamide]
> 20 µM	Cc1nsc(Nc2cnc(C(F)(F)F)cn2)c1C(=O)Nc1ccc(OC2CCN(CCF)CC2)c(F)c1 [Example 162, N-(3-fluoro-4-{[1-(2-fluoroethyl)piperidin-4-yl]oxy}phenyl)-3-methyl-5-{[5-(trifluoromethyl)pyrazin-2-yl]amino}-1,2-thiazole-4-carboxamide]
> 20 µM	CC(=O)Nc1cc(NC(=O)c2c(C)nsc2Nc2ccc(C#N)cn2)ccc1F [Example 152, N-(3-acetamido-4-fluorophenyl)-5-[(5-cyanopyridin-2-yl)amino]-3-methyl-1,2-thiazole-4-carboxamide]
≥ 20 µM	Cc1nsc(Nc2cc(C#N)ccn2)c1C(=O)Nc1cccc(C(=O)N2CCCC2)c1 [Example 114, 5-[(4-Cyanopyridin-2-yl)amino]-3-methyl-N-[3-(pyrrolidin-1-ylcarbonyl)phenyl]-1,2-thiazole-4-carboxamide]
> 20 µM	Cc1nsc(Nc2cnc(C(F)(F)F)cn2)c1C(=O)Nc1ccc(O[C@@H]2CCN(CCC(F)(F)F)C[C@@H]2F)nc1 [Example 139, N-(6-{[(3S,4R)-3-fluoro-1-(3,3,3-trifluoropropyl)piperidin-4-yl]oxy}pyridin-3-yl)-3-methyl-5-{[5-(trifluoromethyl)pyrazin-2-yl]amino}-1,2-thiazole-4-carboxamide]
> 20 µM	Cc1nsc(Nc2cncc(C(F)(F)F)n2)c1C(=O)Nc1ccc(F)c(OC2CCN(C(=O)OC(C)(C)C)CC2)c1 [Example 168, tert-butyl 4-(2-fluoro-5-{[(3-methyl-5-{[6-(trifluoromethyl)pyrazin-2-yl]amino}-1,2-thiazol-4-yl)carbonyl]amino}phenoxy)piperidine-1-carboxylate]
> 20 µM	Cc1nsc(Nc2cnc(C(F)(F)F)cn2)c1C(=O)Nc1ccc(OC2CCN(CC(F)F)CC2)c(F)c1 [Example 164, N-(4-{[1-(2,2-difluoroethyl)piperidin-4-yl]oxy}-3-fluorophenyl)-3-methyl-5-{[5-(trifluoromethyl)pyrazin-2-yl]amino}-1,2-thiazole-4-carboxamide]
18 µM	Cc1nsc(Nc2cncc(C(F)(F)F)n2)c1C(=O)Nc1ccc(C(=O)NCCN2CCCC(F)C2)cc1 (stereo not shown) [Example 155, N-(4-{[2-(3-fluoropiperidin-1-yl)ethyl]carbamoyl}phenyl)-3-methyl-5-{[6-(trifluoromethyl)pyrazin-2-yl]amino}-1,2-thiazole-4-carboxamide]
> 20 µM	Cc1nsc(Nc2cnc(C(F)(F)F)cn2)c1C(=O)Nc1ccc(O[C@H]2CCN(CC(F)(F)F)C[C@H]2F)nc1 [Example 145, N-(6-{[(3R,4S)-3-fluoro-1-(2,2,2-trifluoroethyl)piperidin-4-yl]oxy}pyridin-3-yl)-3-methyl-5-{[5-(trifluoromethyl)pyrazin-2-yl]amino}-1,2-thiazole-4-carboxamide]
> 20 µM	CCCN1CC[C@@H](Oc2ccc(NC(=O)c3c(C)nsc3Nc3cnc(C(F)(F)F)cn3)cn2)[C@@H](F)C1 [Example 140, N-(6-{[(3S,4R)-3-fluoro-1-propylpiperidin-4-yl]oxy}pyridin-3-yl)-3-methyl-5-{[5-(trifluoromethyl)pyrazin-2-yl]amino}-1,2-thiazole-4-carboxamide]
